Data set [1] concerns Aspergillus niger van Tieghem IFO 6341. Put plainly: Fungicide activity for wood fungicide (rating of fungi growth on treated wood). As to conditions: beech specimens dipped 3 min in fungicide solution, 4 weeks culture; rating 0 (no growth) to 3; mean of 6 specimens. The class given is cell-based. As for the experimental part: (§1) This test was conducted according to Specification No.2 of Japan Wood Preserving Association, enacted in 1979 and titled "Test methods of fungicide activity for wood fungicide".
(§2) • ① Aspergillus niger van Tieghem IFO 6341 = ATCC 6275 • ② Penicillium funiculosum Thom (formerly : Penicillium luteum Zukal) IFO 6345 = ATCC 9644 • ③ Rhizopus javanicus Takeda (formerly : Rhizopus nigricans Ehrenberg S.N. 32) IFO 6354 • ④ Aureobasidium pullulans (de Bary) Arnaud IFO 6353 = IAM (H. Iizuka, F-24) • ⑤ Gliocladium virens Miller, Gidden & Fosteb IFO 6355 = ATCC 9645 (formerly : Trichoderma viride, T.I.)
(§3) The fungi ① , ② , ③ and ⑤ are classified as fungi imperfecti, and the fungus ④ as blue stain fungus.
(§4) The Culture medium comprised the potato-sap agar culture medium (specified in the Japan Industrial Standard (JIS) Z 2911- 1960) of 50 ml, put in the conical flask of 100 ml, sterilized by steam at 1.4-1.6 kgf/cm² .G (137.2-156.8 KPa) for 30 minutes.
(§5) The fungi to be used were inoculated into the culture medium specified in the previous section and were cultured at 26 ± 2 °C under the relative humidity of 70-80 % for two weeks.
(§6) The potato sap of 50 ml, sterilized, cooled to room temperature and to which dioctyl sodium sulfosuccinate, a wetting agent, was added so as to become 0.005 %, was dropped to the fully breeding fungi layer, and was agitated with a platinum spatula in such a way that the spore was torn off. The resulting liquid filtered by sterilized gauze was the spore suspension.
(§7) 3-5-1 A Petri dish measured 90-100 mm in diameter and 20 mm in height.
(§8) 3-5-2 Agar liquid (which has no nutrients) of 2 % sterilized by steam was dropped onto the Petri dish sterilized by dry heat, and then was solidified.
(§9) 3-5-3 Three mm diameter sterilized glass bars or plastic nets made of polypropylene, etc. were placed to prevent the test specimens from touching with agar directly.
(§10) 3-6-1 The type of trees for wood specimens was beech. The cross section was of grain face, and the dimension was 20 mm wide 3 mm thick and 50 mm long.
(§11) 3-6-2 Wood specimens were supplied with nutrients in such a way that they were dipped into the potato-sap (the one in the section 3-2, but agar was not added) for 3 minutes.
(§12) 3-6-3 Nutrient-supplied wood specimens, after drying at 60 °C, were used for testing immediately. They were temporarily stored at 0 °C, but they were served to tests as soon as possible.
(§13) The test specimens were of two types, treated and untreated speciments. The treated specimens referred to the one treated with fungicide. The untreated specimens were of two types, the one really untreated and the other treated with solvent only.
(§14) 3-7-2-1 Nutrients-supplied wood specimens were dried at 60 ± 2 °C, and then their weights (W₀) were measured. Test specimens of 10-20 pieces were piled up in a one liter beaker in such a way that two specimens constant space apart from each other were alternately put on the other two specimens also constant space apart from each other. On the top of the two specimens, a weight was placed. Through the test specimens thus arranged, the fungicide solution was introduced. The level of the fungicide solution was one centimeter above the top specimens. The test specimens were dipped for three minutes after the fungicide solution introduction.
(§15) After finishing dipping, the test specimens were wiped softly, and then the weights (W₁) were measured immediately. As control experiment, the same procedure as the above was done using solvent without fungicide.
(§16) 3-7-2-2 The amounts of solution pick-up and fungicide pick-up were calculated with the following equations: The amount of solution absorption: RL = W₁ - W₀ [formula] The amount of fungicide absorption: Rc = RL × fungicide concentration [formula] 3-7-2-3 Wood specimens treated were placed without contacting each other, then were air-dried for two days, and then served as the treated test specimens. […]

In data set [2] the test system is Aureobasidium pullulans (de Bary) Arnaud IFO 6353. The description is as above. It is filed as cell-based. Particulars: beech specimens dipped 3 min in fungicide solution, 4 weeks culture; rating 0 (no growth) to 3; mean of 6 specimens. As for the experimental part: as §1, §2, §3, §4, §5, §6, §7, §8, §9, §10, §11, §12, §13, §14, §15, §16
Data set [3] relates to Gliocladium virens Miller, Gidden & Fosteb IFO 6355. The description is as above. It is filed as cell-based. Particulars: beech specimens dipped 3 min in fungicide solution, 4 weeks culture; rating 0 (no growth) to 3; mean of 6 specimens. As to the method:
as §1, §2, §3, §4, §5, §6, §7, §8, §9, §10, §11, §12, §13, §14, §15, §16

The test system of data set [4] is Penicillium funiculosum Thom IFO 6345. Described as above. The class given is cell-based. As to conditions: beech specimens dipped 3 min in fungicide solution, 4 weeks culture; rating 0 (no growth) to 3; mean of 6 specimens. As for the experimental part: as §1, §2, §3, §4, §5, §6, §7, §8, §9, §10, §11, §12, §13, §14, §15, §16
The subject of data set [5] is Rhizopus javanicus Takeda IFO 6354. The description is as above. The class given is cell-based. As to conditions: beech specimens dipped 3 min in fungicide solution, 4 weeks culture; rating 0 (no growth) to 3; mean of 6 specimens. As to the method: as §1, §2, §3, §4, §5, §6, §7, §8, §9, §10, §11, §12, §13, §14, §15, §16
For data set [6], the system named is Aspergillus Niger (IFO 6341), Penicillium funiculosum (IFO 6345), Rhizopus javanicus (IFO 6354), Aureobasidium pullulans (IFO 6353), Gliocladium virens (IFO …). Put plainly: Fungicide activity for wood fungicide, sum of average ratings and damage value over the five fungi. It is filed as cell-based. As to the method:
as §1, §2, §3, §4, §5, §6, §7, §8, §9, §10, §11, §12, §13, §14, §15, §16

Data set [7] has as its system Coptofermes formosanus SHIRAKI. As to the kind of experiment: Anti-termite activity, contact toxicity on treated quartz sand. It is filed as in vivo. As to the method: This test was conducted on the basis of the method described in Specification No.11 of Japan Wood Preserving Association, enacted in 1981 and titled "The test methods of anti-termite activity for anti-termite agent used in the coating, spraying and dipping treatment, (1) Laboratory test methods".
The termite to be used was Coptofermes formosanus SHIRAKI ("ieshiroari").
4-2-1 The treated quartz sand was prepared as follows : The quartz sand, which passed through a sieve with 60 mesh screen, of 3 g was mixed with the BACTRO-AGAR solution of 1 ml with good agitation. Then, water content was adjusted to 5 %.
4-2-2 The test quartz sand was prepared as follows : The anti-termite agent solution of intended concentration (ppm) was added to the above treated quartz sand, then was mixed, and then was allowed to stand for 14 days to vaporize solvents.
4-2-3 The test quartz sand of 4 g were put into a Petri dish (6 cm in diameter) sterilized with dry heat.
4-2-4 Ten termite workers were randomly sampled from their nest, and then put on the quartz sand.
4-2-5 Each Petri dish was placed in a vessel containing water in the bottom, and then the vessel was allowed to stand in the constant temperature room at 28 ± 2 °C for 14 days. The number of the dead termites was observed and recorded. The first day : every 2 hours for 8 hours. After the second day : every 24 hour.
4-2-6 Test was repeated three times for each concentration of anti-termite agent solution.
4-3-1 Each time when observing, the number of healthy termites and dead termites were recorded.
4-3-2 The results are shown below in Table 4. […]

Each structure is given as a SMILES string.

For `CCCCCCNC(=O)C#CI` [Example 8, N-(n-Hexyl)-3-iodopropiolamide], the “Average rating value, A₁ : Aspergillus Niger (IFO 6341)” value in data set [1] is recorded as 0.3. Besides, the “Average rating value, A₄ : Aureobasidium pullulans (IFO 6353)” value in data set [2] is recorded as 0.0. In addition, the “Average rating value, A₅ : Gliocladium virens (IFO 6355)” value in data set [3] is 0.2. In addition, in data set [4], the “Average rating value, A₂ : Penicillium funiculosum (IFO 6345)” value turned out to be 0.0. The “Average rating value, A₃ : Rhizopus javanicus (IFO 6354)” value in data set [5] is 3.0. The same compound showed a damage value in data set [6] (D = S₁ / S₀ × 100, untreated 100.0, lower = higher fungicide activity) of 23.3. Moreover, in data set [6] (S = A₁ + A₂ + A₃ + A₄ + A₅, untreated 15.0), the “Sum (of average rating values A₁ to A₅)” value amounted to 3.5. For the same compound, the “wood fungicide activity (statement in words)” value in data set [6] (summary of Table 3) is listed as “excellent wood fungicide activity”. The “Death rate (%)” value in data set [7] (concentration 100 ppm, term of contact 1 day) amounted to 0%; in data set [7] (concentration 100 ppm, term of contact 2 days), 0%; in data set [7] (concentration 100 ppm, term of contact 3 days), 20%; in data set [7] (concentration 100 ppm, term of contact 5 days) it was 100%; in data set [7] (concentration 1000 ppm, term of contact 1 day), 0%; in data set [7] (concentration 1000 ppm, term of contact 2 days), 0%. Besides, the “Death rate (%)” value in data set [7] (concentration 1000 ppm, term of contact 3 days) amounted to 70%; in data set [7] (concentration 1000 ppm, term of contact 5 days), 100%.

The record behind these values is patent publication EP0519427A2, “N-substituted-3-iodopropiolamide, production and use thereof” (priority 1991, dated 1992).
